Tested on: human PBMCs
Test: Proliferation and expansion of PBMC subpopulations in culture
Type: cell-based
From the text: An essential feature of IL-7-mediated homeostatic lymphoid maintenance is the proliferation of naive T-cells, expanding both recent thymic emigrants and circulating TN clones to sustain the population and preserve a diverse TCR repertoire in the naive T-cell compartment. […] In the CD8+ population, Ki-67+ frequency reached a peak by day 7, declining slightly by day 16. […] The high Ki-67 background in untreated samples of Treg and NK cells may indicate a high basal turnover rate of these cell types in culture.
Data are shown as mean ± SEM. Flow cytometry gating data shown in S2 Fig.
On days 3, 7, 16, and 30, cell aliquots were taken and analyzed by flow cytometry of CD8+ T naïve and memory populations. (A) Schematic of the putative differentiation pathway of the memory T cell compartment. (B) differential gating of naïve and early memory (Tscm) subpopulations. (C) Cell counts of treated and untreated memory subpopulations over time. (D) Stacked bar representation of changes in total memory T cell subpopulations over time. […] Data are shown as mean ± SEM. Detailed gating information is provided in S4 Fig.
Frozen human PBMCs from 5 healthy donors (Stemcell Technologies, Cat# 70025.2, Lot numbers 2108409012, 2109407009, 210680104C, 210680801C, 211280501C, 220781802C) were thawed and rested overnight at 37°C, 5% CO2 in CTS™ OpTmizer™ T-Cell Expansion SFM (ThermoFisher Scientific Cat# A1048501). […] At indicated time points, cell aliquots were taken, and cell surface staining was performed using antibodies shown in S3 Table followed by viability dye staining. For Ki-67 and FoxP3 staining, surfaced stained cells were fixed and permeabilized according to the manufacturer’s instructions and analyzed immediately using the Novocyte Advanteon instrument (Agilent). The data were analyzed using FlowJo software. Fluorescence Minus One (FMO) controls were used to draw gates. Percentages of Ki-67+ cell populations were expressed as average ± SEM. Memory T-cells are as follows: Tn (CD45RA+CCR7+CD28+CD95-), Tscm (CD45RA+CCR7+CD28+CD95+), Tem (CD45RA-CCR7-), Tcm (CD45RA-CCR7+), and Temra (CD45RA+CCR7-). To count cells per well, at each assay time point 50 μL of the cells were taken from each well and incubated with 200 μL of the viability dye solution. The NovoCyte Advanteon flow cytometer was set to analyze precisely 50 μL ([…] original culture volume), which allowed the calculation of the absolute live cell counts. Because the culture volumes change over time due to splitting and removal, dilution factors were considered when calculating the total number of cells.

For IL-7: human IL-7 cytokine (Peprotech), the “CD4+ and CD8+ maximal counts over day 1 baseline” value (between days 7 and 16) was 5 fold, the “CD8+ Tscm cell number increase” value (day 30, 100 nM MDK-703 or 1 nM IL-7, untreated 5-fold) was 1300 fold and the “CD8+ T-cell number, increase over baseline” value (day 30 in culture, 100 nM MDK-703 or 1 nM IL-7, 5 donors) was 5.2 fold. The “CD8+ Temra expansion” value (over 30 days) was 7 fold.

— publication PMC10597491 (PLOS ONE, 2023)
